Results taken from patent US11180462B2, “Microbiocidal oxadiazole derivatives” (SYNGENTA PARTICIPATIONS AG, priority 2015, dated 2021).

Experiments:
[1] = system: Puccinia recondita f. Sp. Tritici; assay: Fungicidal activity against Puccinia recondita f. sp. tritici / wheat / leaf disc preventative (brown rust); assay type: in vivo; details: foliar, 200 ppm in the applied formulation, wheat leaf segments, preventative, compared to untreated control leaf disks, read-out: disease control
Outline: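 Preventative leaf-segment test, wheat cv. Kanzler on water agar. Spray compound at 200 ppm, inoculate with spores 1 day later; 19° C., 75% rh, 12/12 h light. Read-out: % disease control vs untreated, 7 to 9 days after application.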

[2] = system: Glomerella lagenarium (Colletotrichum lagenarium); assay: Fungicidal activity against Glomerella lagenarium (Colletotrichum lagenarium) liquid culture / cucumber / preventative (anthracnose); assay type: cell-based; details: Colletotrichum orbiculare; 20 ppm in the applied formulation; liquid culture (PDB), growth inhibition measured photometrically after 3 to 4 days; compared to untreated control; read-out: disease control
Outline: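 Photometric read-out of fungal growth after 2–7 days, expressed as percent antifungal activity versus untreated check. Cryo-stored conidia in PDB; compound at 20 ppm; dark, 24 °C, 96% RH.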

Phakopsora Pachyrhizi = assay: Fungicidal activity against Phakopsora pachyrhizi / soybean / leaf disc preventative (Asian soybean rust); assay type: in vivo; details: foliar, 200 ppm in the applied formulation, soybean leaf disks, compared to untreated control leaf disks, read-out: disease control
Experimental: Leaf disks or leaf segments of various plant species are cut from plants grown in a greenhouse. The cut leaf disks or segments are placed in multiwell plates (24-well format) onto water agar. The leaf disks are sprayed with a test solution before (preventative) or after (curative) inoculation. Compounds to be tested are prepared as DMSO solutions (max. 10 mg/ml) which are diluted to the appropriate concentration with 0.025% Tween20 just before spraying. The inoculated leaf disks or segments are incubated under defined conditions (temperature, relative humidity, light, etc.) according to the respective test system. A single evaluation of disease level is carried out 3 to 14 days after inoculation, depending on the pathosystem. Percent disease control relative to the untreated check leaf disks or segments is then calculated.
Fungicidal Activity Against Phakopsora Pachyrhizi Soybean/Leaf Disc Preventative (Asian Soybean Rust)
Soybean leaf disks are placed on water agar in multiwell plates (24-well format) and sprayed with the formulated test compound diluted in water. One day after application leaf discs are inoculated by spraying a spore suspension on the lower leaf surface. After an incubation period in a climate cabinet of 24-36 hours in darkness at 20° C. and 75% rh leaf disc are kept at 20° C. with 12 h light/day and 75% rh. The activity of a compound is assessed as percent disease control compared to untreated when an appropriate level of disease damage appears in untreated check leaf disks (12 to 14 days after application).
The following compounds at 200 ppm in the applied formulation give at least 80% disease control in this test when compared to untreated control leaf disks under the same conditions, which show extensive disease development.

Compound | pest or weed control at 200 ppm [1] | inhibition of growth at 20 ppm [2] | pest or weed control at 200 ppm (Phakopsora Pachyrhizi)
CON(Cc1ccc(-c2noc(C(F)(F)F)n2)cc1)C(=O)C1(C)CCCCC1 [Compound 1.33, N-methoxy-1-methyl-N-[[4-[5-(trifluoromethyl)-1,2,4-oxadiazol-3-yl]phenyl]methyl]-cyclohexane-carboxamide] | ≥ 80% | ≥ 80% | ≥ 80%
C#CCOc1ccc(C(=O)N(Cc2ccc(-c3noc(C(F)(F)F)n3)cc2)OC)cc1F [Compound 1.51, 3-fluoro-N-methoxy-4-prop-2-ynoxy-N-[[4-[5-(trifluoromethy)-1,2,4-oxadiazol-3-yl]phenyl]methyl]-benzamide] | ≥ 80% | ≥ 80% | ≥ 80%
O=C(C1CCCCC1)N(Cc1ccc(-c2noc(C(F)(F)F)n2)cc1)C1CC1 [Compound 1.90, N-cyclopropyl-N-[[4-[5-(trifluoromethyl)-1,2,4-oxadiazol-3-yl]phenyl]methyl]-cyclohexane-carboxamide] | ≥ 80% | ≥ 80% | ≥ 80%
CCCCCC(=O)N(Cc1ccc(-c2noc(C(F)(F)F)n2)cc1)C1CC1 [Compound 1.93, N-cyclopropyl-N-[[4-[5-(trifluoromethyl)-1,2,4-oxadiazol-3-yl]phenyl]methyl]-hexanamide] | ≥ 80% | ≥ 80% | ≥ 80%
CCC(C)(CC)C(=O)N(Cc1ccc(-c2noc(C(F)(F)F)n2)cc1)C1CC1 [Compound 1.135, N-cyclopropyl-2-ethyl-2-methyl-N-[[4-[5-(trifluoromethyl)-1,2,4-oxadiazol-3-yl]phenyl]methyl]-butanamide] | ≥ 80% | ≥ 80% | ≥ 80%
C#CCOC(=O)NC(C(=O)N(Cc1ccc(-c2noc(C(F)(F)F)n2)cc1)C1CC1)C(C)C (centres unmarked) [Compound 1.144, prop-2-ynyl N-[1-[cyclopropyl-[[4-[5-(trifluoromethyl)-1,2,4-oxadiazol-3-yl]phenyl]methyl]-carbamoyl]-2-methyl-propyl]carbamate] | ≥ 80% | ≥ 80% | ≥ 80%
C#CCN(Cc1ccc(-c2noc(C(F)(F)F)n2)cc1)C(=O)C1CCCCC1 [Compound 1.158, N-prop-2-ynyl-N-[[4-[5-(trifluoromethyl)-1,2,4-oxadiazol-3-yl]phenyl]methyl]-cyclohexane-carboxamide] | ≥ 80% | ≥ 80% | ≥ 80%
C#CCN(Cc1ccc(-c2noc(C(F)(F)F)n2)cc1)C(=O)C1CC1(Cl)Cl (centres unmarked) [Compound 1.190, 2,2-dichloro-N-prop-2-ynyl-N-[[4-[5-(trifluoromethyl)-1,2,4-oxadiazol-3-yl]phenyl]methyl]-cyclopropane-carboxamide] | ≥ 80% | ≥ 80% | ≥ 80%
C#CCN(Cc1ccc(-c2noc(C(F)(F)F)n2)cc1)C(=O)Cc1ccc(C#N)cc1 [Compound 1.193, 2-(4-cyanophenyl)-N-prop-2-ynyl-N-[[4-[5-(trifluoromethyl)-1,2,4-oxadiazol-3-yl]phenyl]methyl]-acetamide] | ≥ 80% | ≥ 80% | ≥ 80%
CC(=O)CC(C)C(=O)N(Cc1ccc(-c2noc(C(F)(F)F)n2)cc1)CC1CC1 (centres unmarked) [Compound 1.209, N-(cyclopropylmethyl)-2-methyl-4-oxo-N-[[4-[5-(trifluoromethyl)-1,2,4-oxadiazol-3-yl]phenyl)methyl]-pentanamide] | ≥ 80% | ≥ 80% | ≥ 80%
O=C(C1CCCC1)N(Cc1ccc(-c2noc(C(F)(F)F)n2)cc1)CC1CC1 [Compound 1.212, N-(cyclopropylmethyl)-N-[[4-[5-(trifluoromethyl)-1,2,4-oxadiazol-3-yl]phenyl]methyl]-cyclopentane-carboxamide] | ≥ 80% | ≥ 80% | ≥ 80%
CC(C)CC(=O)N(Cc1ccc(-c2noc(C(F)(F)F)n2)cc1)CC1CC1 [Compound 1.218, N-(cyclopropylmethyl)-3-methyl-N-[[4-[5-(trifluoromethyl)-1,2,4-oxadiazol-3-yl]phenyl]methyl]-butanamide] | ≥ 80% | ≥ 80% | ≥ 80%
O=C(C1CCC1)N(Cc1ccc(-c2noc(C(F)(F)F)n2)cc1)CC1CC1 [Compound 1.221, N-(cyclopropylmethyl)-N-[[4-[5-(trifluoromethyl)-1,2,4-oxadiazol-3-yl]phenyl]methyl]-cyctobutane-carboxamide] | ≥ 80% | ≥ 80% | ≥ 80%
CC=CCC(=O)N(Cc1ccc(-c2noc(C(F)(F)F)n2)cc1)CC1CC1 [Compound 1.222, N-(cyclopropylmethyl)-N-[[4-[5-(trifluoromethyl)-1,2,4-oxadiazol-3-yl]phenyl]methyl]-pent-3-enamide] | ≥ 80% | ≥ 80% | ≥ 80%
COCCCC(=O)N(Cc1ccc(-c2noc(C(F)(F)F)n2)cc1)CC1CC1 [Compound 1.238, N-(cyclopropylmethyl)-4-methoxy-N-[[4-[5-(trifluoromethyl)-1,2,4-oxadiazol-3-yl]phenyl]methyl]-butanamide] | ≥ 80% | ≥ 80% | ≥ 80%
CON(C(=O)C1(C#N)CC1)C(C)c1ccc(-c2noc(C(F)(F)F)n2)cc1 (centres unmarked) [Compound 1.274, 1-cyano-N-methoxy-N-[1-[4-[5-(trifluoromethyl)-1,2,4-oxadiazol-3-yl]phenyl]ethyl]-cyclopropane-carboxamide] | ≥ 80% | ≥ 80% | ≥ 80%
CCCON(Cc1ccc(-c2noc(C(F)(F)F)n2)cc1)C(=O)C1CCCO1 (centres unmarked) [Compound 1.312, N-propoxy-N-[[4-[5-(trifluoromethyl)-1,2,4-oxadiazol-3-yl]phenyl]methyl]-tetrahydrofuran-2-carboxamide] | ≥ 80% | ≥ 80% | ≥ 80%
COCCN(Cc1ccc(-c2noc(C(F)(F)F)n2)cc1)C(=O)CC(C)(C)C [Compound 1.342, N-(2-methoxyethyl)-3,3-dimethyl-N-[[4-[5-(trifluoromethyl)-1,2,4-oxadiazol-3-yl]phenyl]methyl]-butanamide] | ≥ 80% | ≥ 80% | ≥ 80%
CCCC(=O)N(Cc1ccc(-c2noc(C(F)(F)F)n2)cc1)CC1CCCO1 (centres unmarked) [Compound 1.416, N-(tetrahydrofuran-2-ylmethyl)-N-[[4-[5-(trifluoromethyl)-1,2,4-oxadiazol-3-yl]phenyl]methyl]-butanamide] | ≥ 80% | ≥ 80% | ≥ 80%
O=C(CC1CC1)N(Cc1ccc(-c2noc(C(F)(F)F)n2)cc1)CC1CCCO1 (centres unmarked) [Compound 1.418, 2-cyclopropyl-N-(tetrahydrofuran-2-ylmethyl)-N-[[4-[5-(trifluoromethyl)-1,2,4-oxadiazol-3-yl]phenyl]methyl]-acetamide] | ≥ 80% | ≥ 80% | ≥ 80%
O=C(C1CC1F)N(Cc1ccc(-c2noc(C(F)(F)F)n2)cc1)Cc1ccco1 (centres unmarked) [Compound 1.471, 2-fluoro-N-(2-furylmethyl)-N-[[4-(5-(trifluoromethyl)-1,2,4-oxadiazol-3-yl]phenyl]methyl]-cyclopropane-carboxamide] | ≥ 80% | ≥ 80% | ≥ 80%
C=CCN(Cc1ccc(-c2noc(C(F)(F)F)n2)cc1)C(=O)C1CCCC1 [Compound 1.475, N-allyl-N-[[4-[5-(trifluoromethyl)-1,2,4-oxadiazol-3-yl]phenyl]methyl]-cyclopentane-carboxamide] | ≥ 80% | ≥ 80% | ≥ 80%
N#CCC(=O)N(CCO)Cc1ccc(-c2noc(C(F)(F)F)n2)cc1 [Compound 1.728, 2-cyano-N-(2-hydroxyethyl)-N-[[4-[5-(trifluoromethyl)-1,2,4-oxadiazol-3-yl]phenyl]methyl]-acetamide] | ≥ 80% | – | ≥ 80%
